Data on 15 compounds can be found in patent US7189708B2, “Topical composition for skin” (Kao Corporation, priority 1999, dated 2007).

Peptide text beside a SMILES is read from it.

One test concerns C3H mice. Kind of test: Hair growth suppression in mouse (shaved back, topical application). The class given is in vivo. As to conditions: 100 μL twice a day on shaved back, area of hair regrowth after three weeks relative to control; for response vs control in vivo at 0.1 %: Mus musculus, topical, 504 h, 0.1% in 80% ethanol, read-out: Hair-growth suppression ratio; for Hair-growth suppression ratio: 1% in 80% ethanol. As to the method:
Hair Growth Suppression in Mouse
The hair on a portion of the backs (size: 2 cm×4 cm) of groups of six-week-old C3H mice, each group consisting of five mice, was carefully shaved so as not to injure the skin using an electric clipper and electric shaver. To the thus-shaved portion, a sample was applied in an amount of 100 μL twice a day for four weeks. Test compounds were dissolved in a solvent (80% ethanol) to attain the concentrations shown in Table 3, to thereby prepare samples. In the control group, only the solvent was applied to the shaved portion. After three weeks, in order to observe hair regrowth, the shaved portion was photographed at a certain magnification, and the ratio of the area of hair regrowth (i.e., the ratio of the area of hair regrowth to that of the shaved area) was compared with that of the control group using an image analyzer. The hair growth suppression ratio (%) was represented by a relative value when the ratio of the area of the hair regrowth in the control group was taken as 100.

The test system of a further test is hairless mouse (HR/ICR). The test can be described thus: Suppression of wrinkle formation in hairless mouse (UV-B exposure, topical application). As to conditions: 100 μL on back after daily UV-B, 20 weeks, visual rating 0 (no wrinkle) to 4 (deep wrinkles), control 3.06 ± 0.13.
The next test has as its system SD male rats. Kind of test: Maintenance of skin elasticity in rat (UV-B exposed hind limb pads; cutometer and SEM linearity of elastic fibers). Type of test: in vivo. The arrangement: Ue value / Uf value: unit not given here. Particulars: for Ue value / Uf value: 10 μL on pad after UV-B, three times a week, six weeks, cutometer 500 hPa; for Ue value: solvent only 0.02125, no treatment 0.03294; for Uf value: solvent only 0.03333, no treatment 0.04833; for Linearity: linearity of elastic fibers A/(B×C) from SEM micrographs of rat pad, linear = 1, solvent only 0.5133, no treatment 0.7345. As to the method:
Maintenance of Skin Elasticity in Rat
Three-week-old SD male rats were classified into three groups (five rats per group): a group of rats to which an 80% ethanol solution containing a test compound was applied to pads of hind limbs; a group of rats to which a solvent (80% ethanol) was applied to the pads; and a group of non-treated rats. Each pad was exposed to UV-B rays (less than 1 MED), and then the test compound-containing solution or the solvent was applied to the pad in an amount of 10 μL. The above procedure was carried out three times a week (every other day of the week days) for six weeks.
Skin elasticity was determined using a cutometer (model: SES575, product of Courage Kazaka) as follows. The skin of the pad was subjected to suction at 500 hPa for three seconds, and then released for three seconds. The displacement over six seconds was measured, to thereby obtain Ue and Uf values. The measurement was repeated five times for each pad.
The linearity of elastic fibers was analyzed according to the method of Imokawa et al. (J. Invest. Dermatol., 105, 254–258(1995)) through image analysis of an SEM micrograph. Specifically, samples for scanning electron microscopy (SEM) were prepared by fixing the pad of a rat with Mercox (product of Dainippon Ink and Chemicals, Inc.) under reflux, followed by digestion with formic acid. From SEM micrographs (×1000) of each of the samples, ten typical micrographs were selected and enlarged copies were made. Each of the enlarged micrographs was divided into 16 uniform regions. From each of the regions, any one of the elastic fibers was selected and traced on a transparent film with a line having a fixed width (width: 8 pixels). When the area surrounded by the line tracing the elastic fiber is called A, and the longitudinal length and lateral length of the minimum rectangle surrounding the trace are called B and C, respectively, the linearity of the elastic fiber is represented by A/(B×C). For example, when the trace of the elastic fiber is linear, the linearity becomes 1.

Setting [1] is: 0.1% test compound in 80% ethanol.
Where [2] appears, read: 1% test compound in 80% ethanol.

Protocol for hairless mouse (HR/ICR): Immediately after the exposure, an 80% ethanol solution (100 μL) containing a 0.1% test compound was applied to the back. The above procedure was carried out daily for 20 weeks. […] In the control group, only 80% ethanol was applied to the back of each mouse during the test. After the test, wrinkle formation was visually observed, and the degree of wrinkle formation was evaluated against the following ratings (wrinkle index).
1: A few shallow wrinkles were formed.
2: A slight amount of wrinkles was formed.
3: Some wrinkles were formed.
4: Deep wrinkles were formed.

In the case of `O=C(O)CN[C@@H](Cc1ccccc1)C(=O)N[C@@H](CC(=O)O)C(=O)O` [Compound 5], the response vs control in vivo at 0.1 % in the test on C3H mice was 71%. The “Wrinkle Index” value with hairless mouse (HR/ICR) (setting [1]) was 2.21 ± 0.14. In the test with SD male rats (0.1% in 80% ethanol), this compound yielded a Ue value of 0.02694 ± 0.00157 and a Uf value of 0.04285 ± 0.00271. Moreover, the Linearity in the test on SD male rats (0.1%) was 0.6652 ± 0.0239.
The matching figures for `C[C@H](NC(=O)[C@H](Cc1ccccc1)NCC(=O)O)C(=O)O` [Compound 4]: 80.5%, 1.75 ± 0.12, 0.03009 ± 0.00274, 0.04533 ± 0.00971 and 0.7153 ± 0.0329.
Consider `CN(C)[C@@H](Cc1ccccc1)C(=O)NCCC(=O)O` [Compound 7], for which the response vs control in vivo at 0.1 % in the test on C3H mice amounted to 69.6%. In the test with hairless mouse (HR/ICR) (setting [1]), the “Wrinkle Index” value was determined as 2.34 ± 0.10. In the test on SD male rats (0.1% in 80% ethanol), the Ue value was 0.02623 ± 0.00874 and the Uf value is 0.0412 ± 0.00258. In the test on SD male rats (0.1%), this compound had a Linearity of 0.6423 ± 0.0433.
Take `N[C@@H](Cc1ccccc1)C(=O)NCC(=O)O` [Compound 11, Phe-Gly] (H-Phe-Gly-OH): the Hair-growth suppression ratio in the test on C3H mice turned out to be 32.9%. Moreover, the “Wrinkle Index” value in the test on hairless mouse (HR/ICR) (setting [2]) is 2.82 ± 0.18.
Consider `N[C@@H](Cc1ccccc1)C(=O)NCCC(=O)O` [Compound 12, Phe-β-Ala], for which the Hair-growth suppression ratio with C3H mice is given as 90.4%. The “Wrinkle Index” value in the test with hairless mouse (HR/ICR) (setting [2]) was determined as 1.98 ± 0.20. Besides, in the test with SD male rats (1% in 80% ethanol), the Ue value worked out at 0.03326 ± 0.01267 and the Uf value turned out to be 0.04572 ± 0.01862. In the test with SD male rats (1%), this compound had a Linearity of 0.7197 ± 0.0321.
On to `CC(=O)N[C@@H](Cc1ccccc1)C(=O)NCCC(=O)O` [Compound 6], for which the response vs control in vivo at 0.1 % in the test with C3H mice was 58.3%. Also, in the test with hairless mouse (HR/ICR) (setting [1]), the “Wrinkle Index” value stood at 2.57 ± 0.20. In the test with SD male rats (0.1% in 80% ethanol), this compound had a Ue value of 0.02433 ± 0.00921 and a Uf value of 0.03913 ± 0.00924. In the test on SD male rats (0.1%), this compound had a Linearity of 0.6078 ± 0.0195.
On to `CC(C)C[C@H](NCC(=O)O)C(=O)NCCC(=O)O` [Compound 9], for which the response vs control in vivo at 0.1 % with C3H mice came to 77.1%. The “Wrinkle Index” value in the test on hairless mouse (HR/ICR) (setting [1]) is given as 2.11 ± 0.11. In the test with SD male rats (0.1% in 80% ethanol), this compound yielded a Ue value of 0.02793 ± 0.00697 and a Uf value of 0.04295 ± 0.00836. Also, the Linearity in the test with SD male rats (0.1%) is 0.6892 ± 0.0157.
As to `CC(C)C[C@H](NC(=O)[C@H](Cc1ccccc1)NCC(=O)O)C(=O)O` [Compound 3], the response vs control in vivo at 0.1 % in the test with C3H mice turned out to be 72.3%. Moreover, the “Wrinkle Index” value in the test with hairless mouse (HR/ICR) (setting [1]) is listed as 1.82 ± 0.09. Besides, in the test on SD male rats (0.1% in 80% ethanol), the Ue value worked out at 0.02985 ± 0.01021 and the Uf value is on record as 0.04323 ± 0.01722. Besides, the Linearity in the test on SD male rats (0.1%) is 0.7013 ± 0.06551.
In the case of `N[C@@H](Cc1ccccc1)C(=O)N[C@@H](Cc1ccccc1)C(=O)O` [Compound 13, Phe-Phe] (H-Phe-Phe-OH), the Hair-growth suppression ratio in the test on C3H mice stood at 78.5%. Also, in the test with hairless mouse (HR/ICR) (setting [2]), the “Wrinkle Index” value is 2.64 ± 0.16.
As for `O=C(O)CCNC(=O)[C@H](Cc1ccccc1)NCC(=O)O` [Compound 1, N-(carboxymethyl)phenylalanyl-β-alanine], in the test with C3H mice, the response vs control in vivo at 0.1 % is 82.4%. For the same compound, the “Wrinkle Index” value in the test on hairless mouse (HR/ICR) (setting [1]) stood at 1.25 ± 0.11. In the test on SD male rats (0.1% in 80% ethanol), the Ue value came out at 0.03153 ± 0.00523 and the Uf value was determined as 0.04711 ± 0.00213. The compound further returned a Linearity in the test with SD male rats (0.1%) of 0.7221 ± 0.0299.
As for `CCCN[C@@H](Cc1ccccc1)C(=O)NCCC(=O)O` [Compound 8], in the test with C3H mice, the response vs control in vivo at 0.1 % is 77.8%. In addition, the “Wrinkle Index” value in the test on hairless mouse (HR/ICR) (setting [1]) turned out to be 2.03 ± 0.09. In the test with SD male rats (0.1% in 80% ethanol), the Ue value is 0.02708 ± 0.00119 and the Uf value is 0.0427 ± 0.00657. The compound further had a Linearity with SD male rats (0.1%) of 0.6976 ± 0.0422.
With `O=C(O)CCCNC(=O)[C@H](Cc1ccccc1)NCC(=O)O` [Compound 2], the response vs control in vivo at 0.1 % in the test with C3H mice was 73.3%. Besides, the “Wrinkle Index” value in the test on hairless mouse (HR/ICR) (setting [1]) worked out at 2.01 ± 0.14.
Consider `NC(Cc1ccccc1)C(=O)NCCS(=O)(=O)O` (stereo not drawn) [Compound 17, Phe-Tau], for which the Hair-growth suppression ratio in the test on C3H mice stood at 79.5%. Also, the “Wrinkle Index” value in the test on hairless mouse (HR/ICR) (setting [2]) is 1.99 ± 0.12. In the test with SD male rats (1% in 80% ethanol), this compound returned a Ue value of 0.02894 ± 0.0114 and a Uf value of 0.04369 ± 0.00872. The compound also came in with a Linearity with SD male rats (1%) of 0.6913 ± 0.0341.
Take `N[C@@H](Cc1ccccc1)C(=O)N[C@@H](CC(=O)O)C(=O)O` [Compound 16, Phe-Asp] (H-Phe-Asp-OH): the Hair-growth suppression ratio with C3H mice turned out to be 75.2%. Besides, in the test on hairless mouse (HR/ICR) (setting [2]), the “Wrinkle Index” value stood at 2.50 ± 0.15.
On to `CC(C)C[C@H](NC(=O)[C@@H](N)Cc1ccccc1)C(=O)O` [Compound 14, Phe-Leu] (H-Phe-Leu-OH), for which the Hair-growth suppression ratio in the test with C3H mice came out at 70.9%. Further, in the test with hairless mouse (HR/ICR) (setting [2]), the “Wrinkle Index” value was found to be 2.82 ± 0.22.
